# Measurements: patent publication US20120329653A1, “SYNERGISTIC HERBICIDAL COMPOSITION CONTAINING PENOXSULAM AND PENDIMETHALIN” (DOW AGROSCIENCES LLC, priority 2011, published 2012)
# Tests used:
# Format in all cases: in vivo
# [1] = tested on: Alternanthera philoxeroides (alligatorweed); assay: Preemergence field trial in seeded rice, % visual weed control; conditions: USA, 22 to 54 days after application
# Procedure: (§1) Field trials were conducted in rice and tree crops using standard herbicide small plot research methodology. Plot size was typical for small plot research, varying from 2 to 4 meters (m) wide by 6.7 to 10 meters long. There were 3 to 4 replicates per treatment. Soil types ranged from medium to fine soil texture. Rice or cereal crops were sown by mechanical direct dry seeding as per normal local cultural practices. The rice or cereal crop was grown using normal cultural practices for fertilization, watering, flooding and maintenance to ensure good growth of the crop and the weeds.
# (§2) Treatments were applied by backpack sprayer using either compressed air or CO2, at spray pressures from 124 to 276 kilopascals (kPa). Spray tips were typically Flat Fan Teejet nozzles, such as TJ8002 to TJ110015 or XR11001. Spray volumes varied from 93.5 to 250 liters per hectare (L/ha). Penoxsulam was applied as the commercial products Grasp SC (240 gr ai/L) or Clipper 20 OD (20 grams ai/L); pendimethalin was applied as the commercial product Prowl EC.
# (§3) For each treatment, the appropriate formulated product amount to treat the plot area, to achieve the desired application rate, based on unit area of application (hectare), was calculated, measured, and mixed in water prior to applying with the backpack sprayer. Treatments were rated as compared to the untreated control plots.
# (§4) The treated plots and control plots were rated blind at various intervals after application. Ratings were based of Percent (%) Visual weed control, where 0 corresponds to no injury and 100 corresponds to complete kill.
# (§5) Colby's equation was used to determine the herbicidal effects expected from the mixtures (Colby, S. R. Calculation of the synergistic and antagonistic response of herbicide combinations. Weeds 1967, 15, 20-22).
# (§6) The following equation was used to calculate the expected activity of mixtures containing two active ingredients, A and B:
# (§7) A=observed efficacy of active ingredient A at the same concentration as used in the mixture;
# (§8) B=observed efficacy of active ingredient B at the same concentration as used in the mixture.
# [2] = tested on: Echinochloa colonum (junglerice); assay: as above; conditions: 60 days after application
# Procedure: as §1, §2, §3, §4, §5, §6, §7, §8
# [3] = tested on: Ipomoea spp. (morningglory); assay: as above; conditions: Texas, USA, 22 to 54 days after application
# Procedure: as §1, §2, §3, §4, §5, §6, §7, §8
# [4] = tested on: Ischaemum rugosum (saramollagrass); assay: as above; conditions: 60 days after application
# Procedure: as §1, §2, §3, §4, §5, §6, §7, §8
# SEBEX = assay: as above; conditions: 22 to 54 days after application
# Procedure: as §1, §2, §3, §4, §5, §6, §7, §8
# [5] = tested on: Alopecurus myosuroides (blackgrass); assay: Preemergence field trial in perennial tree crops, % weed control; conditions: 206 days after application
# Procedure: as §1, §2, §3, §4, §5, §6, §7, §8
SMILES,"% Visual Control ALRPH Obs ([1]; pendimethalin 1100 gai/ha, Arkansas) [%]","% Visual Control ALRPH Obs ([1]; pendimethalin 1100 gai/ha, Texas) [%]",% Visual Control ECHCO Obs ([2]; pendimethalin 750 gai/ha) [%],% Visual Control IPOSS Obs ([3]; pendimethalin 1100 gai/ha) [%],% Visual Control ISCRU Obs ([4]; pendimethalin 750 gai/ha) [%],% Visual Control SEBEX Obs (SEBEX; pendimethalin 1100 gai/ha) [%],% Control ALOMY Obs ([5]; pendimethalin 500 gai/ha) [%],% Control ALOMY Obs ([5]; pendimethalin 1000 gai/ha) [%],"% Visual Control ALRPH Obs ([1]; penoxsulam 20 gai/ha, Arkansas) [%]","% Visual Control ALRPH Obs ([1]; penoxsulam 20 gai/ha, Texas) [%]",% Visual Control ECHCO Obs ([2]; penoxsulam 20 gai/ha) [%],% Visual Control IPOSS Obs ([3]; penoxsulam 20 gai/ha) [%],% Visual Control ISCRU Obs ([4]; penoxsulam 30 gai/ha) [%],% Visual Control SEBEX Obs (SEBEX; penoxsulam 40 gai/ha) [%],% Control ALOMY Obs ([5]; penoxsulam 10 gai/ha) [%],% Control ALOMY Obs ([5]; penoxsulam 20 gai/ha) [%],% Control ALOMY Obs ([5]; penoxsulam 30 gai/ha) [%],% Control ALOMY Obs ([5]; penoxsulam 40 gai/ha) [%]
"CCC(CC)Nc1c([N+](=O)[O-])cc(C)c(C)c1[N+](=O)[O-] [Pendimethalin, N-(1-ethylpropyl)-3,4-dimethyl-2,6-dinitrobenzenamine]",0,0,55,35,57,14,0,7,,,,,,,,,,
COc1cnc(OC)n2nc(NS(=O)(=O)c3c(OCC(F)F)cccc3C(F)(F)F)nc12 [Penoxsulam],,,,,,,,,43,74,25,21,35,40,0,20,43,50
